Source: paper PMC9599613 (Biomolecules, 2022)

What was measured:
[1] = molecular target: T1, human recombinant 5-LOX (Homo sapiens, UniProt P09917); test: biochemical
T1 sequence (P09917 1-674): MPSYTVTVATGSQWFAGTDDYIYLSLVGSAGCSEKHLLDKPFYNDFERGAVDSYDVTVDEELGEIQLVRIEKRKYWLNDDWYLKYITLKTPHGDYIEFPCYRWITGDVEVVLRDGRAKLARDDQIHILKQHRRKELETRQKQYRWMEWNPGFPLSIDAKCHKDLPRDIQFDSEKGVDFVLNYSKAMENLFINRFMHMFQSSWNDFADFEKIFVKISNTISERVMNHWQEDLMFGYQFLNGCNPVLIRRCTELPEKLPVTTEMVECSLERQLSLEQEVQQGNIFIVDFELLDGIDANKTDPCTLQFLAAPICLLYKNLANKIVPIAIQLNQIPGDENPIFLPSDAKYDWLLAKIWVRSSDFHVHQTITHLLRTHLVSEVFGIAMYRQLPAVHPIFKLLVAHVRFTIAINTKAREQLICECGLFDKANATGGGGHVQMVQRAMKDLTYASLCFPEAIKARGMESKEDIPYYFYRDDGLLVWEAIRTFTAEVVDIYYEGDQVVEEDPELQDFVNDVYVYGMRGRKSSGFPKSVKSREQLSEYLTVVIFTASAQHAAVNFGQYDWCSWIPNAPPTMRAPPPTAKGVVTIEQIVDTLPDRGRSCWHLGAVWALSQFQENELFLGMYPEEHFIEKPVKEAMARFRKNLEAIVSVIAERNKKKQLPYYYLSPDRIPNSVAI
Protocol: The lipoxygenase assay on our test compounds was performed by utilizing human recombinant 5-LOX [65]. […] The enzyme solution with a concentration of 10,000 U/mL was prepared, whereas 80 mM linoleic acid solution was used as a substrate. Solutions were prepared in a phosphate buffer (50 mM) with a pH of 6.3, which was also utilized as the blank. To start, various concentrations of our test samples were dissolved in 0.25 mL of the buffer, to which 0.25 mL enzyme solution was added and incubated at 25 °C for 5 min. Afterward, the substrate solution (0.1 mL) was added to the mixture and shaken well. […] In this assay, the standard drug was montelukast, and using the following formula, the % inhibitions were calculated: % enzyme inhibition=X−X1/X×100 where X = absorbance of the negative control (with no test sample), and X1 = absorbance of the test compound.

[2] = molecular target: COX-1 (Homo sapiens, UniProt P23219); test: biochemical; conditions: read-out: % COX-1 Inhibition
Protocol: The Cyclooxygenase enzymes (COX-1 and 2) inhibitory potential of our test compounds was determined according to the previously reported procedure. […] The enzyme solutions with a concentration of 0.7–0.8 μg/10 μL (COX-1) and 300 U/mL (COX-2) were prepared. To start the assay, for enzyme activation, 10 µL enzyme solution (kept in a cool temperature of 4 °C for 5 min) and cofactor containing hematin (50 µL, 1 mM), glutathione (0.9 mM) and TMPD in a Tris-buffer (0.1 M) with a pH 8.0 was added. After that, 60 µL of the enzyme solution was added to 20 µL of the test samples of various concentrations and incubated at room temperature for 5 to 10 min. Then, 20 µL of arachidonic acid (30 mM) was added to start the reaction. The mixture was then again incubated for 15 min at 37 °C, and absorbances were measured at 570 nm with UV-visible spectrophotometer. […] The % enzyme inhibitions were calculated by using the previously reported formula.

COX-1, sequence (P23219 24-599): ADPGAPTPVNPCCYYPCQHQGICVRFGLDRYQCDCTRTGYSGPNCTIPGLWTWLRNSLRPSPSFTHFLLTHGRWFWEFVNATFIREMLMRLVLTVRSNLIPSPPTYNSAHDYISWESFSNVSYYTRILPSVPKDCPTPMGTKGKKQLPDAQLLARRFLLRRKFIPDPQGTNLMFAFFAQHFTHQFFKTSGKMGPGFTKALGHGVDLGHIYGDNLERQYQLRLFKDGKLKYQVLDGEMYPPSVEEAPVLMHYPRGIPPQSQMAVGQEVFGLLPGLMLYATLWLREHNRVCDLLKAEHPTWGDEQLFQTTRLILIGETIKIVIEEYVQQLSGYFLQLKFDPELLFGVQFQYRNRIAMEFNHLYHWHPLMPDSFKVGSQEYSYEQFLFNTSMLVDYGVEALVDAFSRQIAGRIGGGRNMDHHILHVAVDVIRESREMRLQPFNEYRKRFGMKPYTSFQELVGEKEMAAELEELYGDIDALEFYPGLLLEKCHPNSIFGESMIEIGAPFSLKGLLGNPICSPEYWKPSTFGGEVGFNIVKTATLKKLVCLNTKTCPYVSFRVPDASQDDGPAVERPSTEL

CC(C)(O)c1ccccc1CC[C@@H](SCC1(CC(=O)O)CC1)c1cccc(/C=C/c2ccc3ccc(Cl)cc3n2)c1 [Montelukast, montelukast, reference compound]
IC50 [1]: 7.68 µM
inhibition at 62.5 µg/mL ([1]; 62.50 μg/mL, read-out: % 5-LOX Inhibition): 74.17 ± 0.72%
inhibition at 125 µg/mL ([1]; 125 μg/mL, read-out: % 5-LOX Inhibition): 79.6 ± 0.9%
inhibition at 250 µg/mL ([1]; 250 μg/mL, read-out: % 5-LOX Inhibition): 85.5 ± 0.4%
inhibition at 500 µg/mL ([1]; 500 μg/mL, read-out: % 5-LOX Inhibition): 89.4 ± 1.65%
inhibition at 1000 µg/mL ([1]; 1000 μg/mL, read-out: % 5-LOX Inhibition): 93.55 ± 0.4%

CC(=O)Oc1ccccc1C(=O)O [Aspirin, aspirin, reference compound]
inhibition at 62.5 µg/mL ([2]; 62.50 μg/mL): 51.68 ± 0.22%
inhibition at 125 µg/mL ([2]; 125 μg/mL): 59.84 ± 0.32%
inhibition at 250 µg/mL ([2]; 250 μg/mL): 66.43 ± 0.29%
inhibition at 500 µg/mL ([2]; 500 μg/mL): 71.88 ± 0.2%
inhibition at 1000 µg/mL ([2]; 1000 μg/mL): 75.89 ± 0.2%
